In article PMC12186844 (ACS Chemical Neuroscience, 2025):
Numbering of substitutions follows the chain as printed. Read-outs that look alike come from different tables or passages of the source.

How the values were obtained:
SNAP-D2SR G51^1.49A = SNAP-D2SR G51^1.49A (Homo sapiens, UniProt P14416, G51A); experiment: cell membrane [3H]spiperone assay
Procedure: (§1) Flp-In-CHO cells stably expressing the wild-type or mutant DRs were grown to 90% confluence in 175 cm^2 cell culture flasks. The cells were harvested in PBS containing 2 mM EDTA and centrifuged at 300g for 3 min. The resulting pellet was resuspended in ice-cold assay buffer (20 mM HEPES, 100 mM NaCl, 6 mM MgCl2, 1 mM EGTA, and 1 mM EDTA, pH 7.4), and the centrifugation step was repeated. The intact cell pellet was then resuspended in assay buffer and homogenized using a Polytron homogenizer. After centrifugation (1000g, 10 min), the pellet was discarded, and the supernatant was recentrifuged at 30,000g for 1 h at 4 °C using a Sorvall Evolution RC ultracentrifuge (Thermo Scientific). The resulting pellet was resuspended in assay buffer and stored in 250 μL aliquots at −80 °C. Membrane protein concentration was determined using a Pierce’s BCA protein assay kit (Thermo Fisher, Melbourne).
(§2) [^3H]­Spiperone binding experiments using cell membranes were conducted in a 200 μL reaction volume in assay buffer (20 mM HEPES, 100 mM NaCl, 6 mM MgCl2, 1 mM EGTA, and 1 mM EDTA, pH 7.4) containing 100 μM GppNHp and 0.1% ascorbic acid in 96-well plates. […] In all cases, nonspecific binding was determined in the presence of 10 μM haloperidol. […] Filter bound radioactivity was detected as a chemiluminescence after the addition of MicroScint-20 (Revvity) in a MicroBeta plate counter (Revvity). […]

SNAP-D2SR L76^2.46A = SNAP-D2SR L76^2.46A (Homo sapiens, UniProt P14416, L76A); experiment: cell membrane [3H]spiperone assay
Procedure: as §1, §2

SNAP-D2SR W384^7.40A = SNAP-D2SR W384^7.40A (Homo sapiens, UniProt P14416, W413A); experiment: functional cAMP assay, BRET biosensor; type: cell-based
Procedure: (§3) Flp-In-CHO cells stably coexpressing the CAMYEL biosensor and DRs were plated into white 96-well CulturPlates (Revvity) and grown overnight. The cells were equilibrated in Hank’s balanced salt solution (HBSS) at 37 °C (or 25 °C when indicated) before starting the experiment. The cells were costimulated with the agonists and 10 μM forskolin for the indicated time frames when the BRET readings were captured. Coelenterazine (Nanolight Technology, AZ) was added at a final concentration of 5 μM at least 3 min prior to measurement. […] Net BRET was determined by subtraction of the vehicle control coadded with 10 μM forskolin. For phenoxybenzamine alkylation experiments, the cells were treated with 0.1, 0.3, or 1 μM phenoxybenzamine (Sigma-Aldrich) diluted in HBSS and equilibrated at 37 °C for 30 min prior to the commencement of the assay.
(§4) Dose–response curves were fitted using the following three-parameter equation: response=bottom+top−bottom/1+10^(logEC50−log[A]) 5 where top and bottom represent the maximal and minimal asymptote of the dose response curve, [A] is the molar concentration of the agonist, and EC50 is the molar concentration of the agonist required to give a response half-way between bottom and top.

SNAP-D2SR W100^ECL1A = SNAP-D2SR W100^ECL1A (Homo sapiens, UniProt P14416, W100A); experiment: functional cAMP assay, BRET biosensor; type: cell-based
Procedure: as §3, §4

D4.4R = D4.4R (Homo sapiens, UniProt P21917); experiment: cell membrane [3H]spiperone binding assay
Procedure: as §1
[^3H]­Spiperone binding experiments using cell membranes were conducted in a 200 μL reaction volume in assay buffer (20 mM HEPES, 100 mM NaCl, 6 mM MgCl2, 1 mM EGTA, and 1 mM EDTA, pH 7.4) containing 100 μM GppNHp and 0.1% ascorbic acid in 96-well plates. […] In all cases, nonspecific binding was determined in the presence of 10 μM haloperidol. […] Filter bound radioactivity was detected as a chemiluminescence after the addition of MicroScint-20 (Revvity) in a MicroBeta plate counter (Revvity).

D2LR = D2LR (Homo sapiens, UniProt P14416); experiment: cell membrane [3H]raclopride binding assay; conditions: for Logα_DA / α′_DA: cooperativity with DA
SNAP-D2SR F50^1.48A [1] = target: T1, SNAP-D2SR F50^1.48A (Homo sapiens, UniProt P14416, F50A); experiment: cell membrane [3H]spiperone assay
Procedure: as §1
[^3H]­Spiperone binding experiments using cell membranes were conducted in a 200 μL reaction volume in assay buffer (20 mM HEPES, 100 mM NaCl, 6 mM MgCl2, 1 mM EGTA, and 1 mM EDTA, pH 7.4) containing 100 μM GppNHp and 0.1% ascorbic acid in 96-well plates. […] In all cases, nonspecific binding was determined in the presence of 10 μM haloperidol. To obtain affinity estimates of unlabeled agonists, competition binding experiments were performed at equilibrium. […] After this incubation period, bound and free radioligands were separated by fast-flow filtration through UniFilter-96 GF/B plates using a MicroBeta FilterMate harvester (Revvity) followed by three washes with ice-cold 0.9% NaCl. Filter bound radioactivity was detected as a chemiluminescence after the addition of MicroScint-20 (Revvity) in a MicroBeta plate counter (Revvity).
IC50 values obtained from the inhibition curves were converted to Ki values using the Cheng and Prusoff equation.

SNAP-D2SR F408^8.54A = SNAP-D2SR F408^8.54A (Homo sapiens, UniProt P14416, F437A); experiment: cell membrane [3H]spiperone assay
Procedure: as §1, §2

SNAP-D2SR F353^6.44A = SNAP-D2SR F353^6.44A (Homo sapiens, UniProt P14416, F382A); experiment: cell membrane [3H]spiperone assay
Procedure: as §1, §2

SNAP-D2SR F50^1.48A [2] = target: T1, SNAP-D2SR F50^1.48A; experiment: functional cAMP assay, BRET biosensor; type: cell-based; design: expressed in transfected cells
Procedure: (§5) Flp-In-CHO cells stably coexpressing the CAMYEL biosensor and DRs were plated into white 96-well CulturPlates (Revvity) and grown overnight. The cells were equilibrated in Hank’s balanced salt solution (HBSS) at 37 °C (or 25 °C when indicated) before starting the experiment. The cells were costimulated with the agonists and 10 μM forskolin for the indicated time frames when the BRET readings were captured. Coelenterazine (Nanolight Technology, AZ) was added at a final concentration of 5 μM at least 3 min prior to measurement. […] Net BRET was determined by subtraction of the vehicle control coadded with 10 μM forskolin.
as §4

SNAP-D2SR F404^8.50A = SNAP-D2SR F404^8.50A (Homo sapiens, UniProt P14416, F433A); experiment: cell membrane [3H]spiperone assay
Procedure: as §1, §2

SNAP-D2SR C118^3.36A = target: T2, SNAP-D2SR C118^3.36A (Homo sapiens, UniProt P14416, C118A); experiment: functional cAMP assay, BRET biosensor; type: cell-based
T2 sequence (P14416 1-414 isoform P14416-2 C118A): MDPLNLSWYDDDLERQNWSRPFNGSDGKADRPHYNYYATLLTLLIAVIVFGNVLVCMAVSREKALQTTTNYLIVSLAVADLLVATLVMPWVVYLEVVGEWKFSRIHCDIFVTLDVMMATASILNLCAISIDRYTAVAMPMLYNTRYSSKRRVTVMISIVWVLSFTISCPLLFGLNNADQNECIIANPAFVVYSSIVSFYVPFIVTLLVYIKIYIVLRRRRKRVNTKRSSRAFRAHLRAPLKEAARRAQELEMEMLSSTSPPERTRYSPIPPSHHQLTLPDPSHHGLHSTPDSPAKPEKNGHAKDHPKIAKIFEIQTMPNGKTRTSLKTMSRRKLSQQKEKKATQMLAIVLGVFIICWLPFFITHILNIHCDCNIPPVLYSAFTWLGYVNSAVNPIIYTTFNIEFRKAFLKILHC
Procedure: as §5, §4

SNAP-D2SR N393^7.49A = SNAP-D2SR N393^7.49A (Homo sapiens, UniProt P14416, N422A); experiment: cell membrane [3H]spiperone assay
Procedure: as §1, §2

SNAP-D2SR I128^3.46A = target: T3, SNAP-D2SR I128^3.46A (Homo sapiens, UniProt P14416, I128A); experiment: cell membrane [3H]spiperone assay
T3 sequence (P14416 1-414 isoform P14416-2 I128A): T2 sequence (P14416 1-414 isoform P14416-2 C118A) with A118C, I128A
Procedure: as §1, §2

[3] = +0.1 mM GppNHp, cooperativity with [3H]raclopride
[4] = +PTX, cooperativity with [3H]raclopride
[5] = +urea, cooperativity with [3H]raclopride
[6] = read-out: D2 PAM2 KB (converted)

Chain of SNAP-D2SR W100^ECL1A (P14416 1-414 isoform P14416-2 W100A): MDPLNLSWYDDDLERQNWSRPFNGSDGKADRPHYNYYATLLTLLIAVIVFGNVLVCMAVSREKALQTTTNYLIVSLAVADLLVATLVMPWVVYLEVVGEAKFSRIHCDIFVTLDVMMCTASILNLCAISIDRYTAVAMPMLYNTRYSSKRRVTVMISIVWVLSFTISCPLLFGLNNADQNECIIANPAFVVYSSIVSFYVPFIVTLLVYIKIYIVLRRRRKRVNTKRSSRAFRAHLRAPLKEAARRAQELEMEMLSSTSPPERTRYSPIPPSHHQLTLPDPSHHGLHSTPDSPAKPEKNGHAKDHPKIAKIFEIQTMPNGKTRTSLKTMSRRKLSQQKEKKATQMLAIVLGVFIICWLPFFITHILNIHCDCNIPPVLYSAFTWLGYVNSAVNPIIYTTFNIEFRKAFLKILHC
Chain of SNAP-D2SR W384^7.40A (P14416 1-414 isoform P14416-2 W384A): as the sequence (P14416 1-414 isoform P14416-2 W100A) above, with A100W, W384A counted along it
Chain of D2LR (P14416 whole entry): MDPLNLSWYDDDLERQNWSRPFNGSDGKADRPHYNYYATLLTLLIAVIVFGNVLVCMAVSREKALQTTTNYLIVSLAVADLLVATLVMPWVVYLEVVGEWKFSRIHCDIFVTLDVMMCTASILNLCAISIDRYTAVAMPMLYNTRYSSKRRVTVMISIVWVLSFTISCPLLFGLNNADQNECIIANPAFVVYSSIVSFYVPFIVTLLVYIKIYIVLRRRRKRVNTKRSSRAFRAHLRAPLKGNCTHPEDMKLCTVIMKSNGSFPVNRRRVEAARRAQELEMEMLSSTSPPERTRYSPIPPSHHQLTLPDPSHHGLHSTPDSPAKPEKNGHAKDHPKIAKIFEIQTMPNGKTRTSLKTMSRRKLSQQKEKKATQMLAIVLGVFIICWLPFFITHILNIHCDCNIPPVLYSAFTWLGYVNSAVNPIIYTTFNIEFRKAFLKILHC
T1 sequence (P14416 1-414 isoform P14416-2 F50A): as the sequence (P14416 1-414 isoform P14416-2 W100A) above, with F50A, A100W counted along it
Chain of SNAP-D2SR L76^2.46A (P14416 1-414 isoform P14416-2 L76A): as the sequence (P14416 1-414 isoform P14416-2 W100A) above, with L76A, A100W counted along it
Chain of SNAP-D2SR F408^8.54A (P14416 1-414 isoform P14416-2 F408A): as the sequence (P14416 1-414 isoform P14416-2 W100A) above, with A100W, F408A counted along it
Chain of SNAP-D2SR F353^6.44A (P14416 1-414 isoform P14416-2 F353A): as the sequence (P14416 1-414 isoform P14416-2 W100A) above, with A100W, F353A counted along it
Chain of SNAP-D2SR F404^8.50A (P14416 1-414 isoform P14416-2 F404A): as the sequence (P14416 1-414 isoform P14416-2 W100A) above, with A100W, F404A counted along it
Chain of SNAP-D2SR N393^7.49A (P14416 1-414 isoform P14416-2 N393A): as the sequence (P14416 1-414 isoform P14416-2 W100A) above, with A100W, N393A counted along it
Chain of SNAP-D2SR G51^1.49A (P14416 1-414 isoform P14416-2 G51A): as the sequence (P14416 1-414 isoform P14416-2 W100A) above, with G51A, A100W counted along it
Chain of D4.4R (P21917 whole entry): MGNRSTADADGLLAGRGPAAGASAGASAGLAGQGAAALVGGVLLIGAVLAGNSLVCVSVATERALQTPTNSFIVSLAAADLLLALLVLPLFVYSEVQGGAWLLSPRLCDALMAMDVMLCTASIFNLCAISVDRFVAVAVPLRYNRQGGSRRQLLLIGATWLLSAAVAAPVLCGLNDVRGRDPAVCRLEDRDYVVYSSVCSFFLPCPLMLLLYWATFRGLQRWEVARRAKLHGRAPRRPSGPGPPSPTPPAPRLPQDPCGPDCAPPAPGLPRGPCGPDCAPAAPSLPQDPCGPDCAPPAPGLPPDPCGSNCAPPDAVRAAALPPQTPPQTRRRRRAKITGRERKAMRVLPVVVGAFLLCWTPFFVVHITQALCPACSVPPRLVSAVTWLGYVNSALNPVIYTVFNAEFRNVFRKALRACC

COc1cc(CO)c(F)cc1C(=O)n1ccc2c(F)cccc21 [D2 PAM2, [5-fluoro-4-(hydroxymethyl)-2-methoxyphenyl]-(4-fluoro-1H-indol-1-yl)methanone]
fold shift + 10 μM PAM (SNAP-D2SR G51^1.49A; shift of DA IC50): 0.8 fold
ΔpIC50 + 10 μM PAM (SNAP-D2SR G51^1.49A; shift of DA pIC50): –0.08 ± 0.17
fold shift + 10 μM PAM (SNAP-D2SR L76^2.46A; shift of DA IC50): 3.5 fold
ΔpIC50 + 10 μM PAM (SNAP-D2SR L76^2.46A; shift of DA pIC50): 0.55 ± 0.07
Kb (SNAP-D2SR W384^7.40A): 13.8 µM
Logτ (SNAP-D2SR W384^7.40A): -0.24 ± 0.08
pKB (SNAP-D2SR W384^7.40A): 4.86 ± 0.24
τ (SNAP-D2SR W384^7.40A): 0.57
Logαβ (SNAP-D2SR W384^7.40A; with DA): 1.04 ± 0.15
αβ (SNAP-D2SR W384^7.40A; with DA): 11.0
Kb (SNAP-D2SR W100^ECL1A): 11.7 µM
Logτ (SNAP-D2SR W100^ECL1A): -0.43 ± 0.06
pKB (SNAP-D2SR W100^ECL1A): 4.93 ± 0.28
τ (SNAP-D2SR W100^ECL1A): 0.37
Logαβ (SNAP-D2SR W100^ECL1A; with DA): 1.54 ± 0.10
αβ (SNAP-D2SR W100^ECL1A; with DA): 34.7
ability to potentiate DA binding at the D4R (D4.4R): no activity was observed
fold lower affinity in cell membranes than in whole cell binding (D2LR): 4 fold
pKB_D2 PAM (D2LR; +0.1 mM GppNHp): 4.65 ± 0.05
Logα_DA (D2LR; +0.1 mM GppNHp): 1.30 ± 0.02
α′_DA (D2LR; +0.1 mM GppNHp): 20
Logα_[3H]raclo (D2LR; [3]): –0.19 ± 0.05
α_[3H]raclo (D2LR; [3]): 0.65
Kb (D2LR; +0.1 mM GppNHp, read-out: KB_D2 PAM (converted)): 22.5 µM
pKB_D2 PAM (D2LR; +PTX): 4.54 ± 0.03
Logα_DA (D2LR; +PTX): 1.22 ± 0.07
α′_DA (D2LR; +PTX): 17
Logα_[3H]raclo (D2LR; [4]): –0.37 ± 0.10
α_[3H]raclo (D2LR; [4]): 0.42
Kb (D2LR; +PTX, read-out: KB_D2 PAM (converted)): 29 µM
pKB_D2 PAM (D2LR; +urea): 4.53 ± 0.15
Logα_DA (D2LR; +urea): 1.35 ± 0.12
α′_DA (D2LR; +urea): 22
Logα_[3H]raclo (D2LR; [5]): –0.06 ± 0.08
α_[3H]raclo (D2LR; [5]): 0.87
Kb (D2LR; +urea, read-out: KB_D2 PAM (converted)): 30 µM
logα_DA (D2LR; D2LR): 1.30 ± 0.02
logα_[3H]raclo (D2LR; D2LR): -0.19 ± 0.05
α_DA (D2LR; D2LR): 20
α_[3H]raclo (D2LR; D2LR): 0.64
Kb (D2LR; cell membrane preparations, read-out: KB): 22 µM
pKB (SNAP-D2SR F50^1.48A [1]; [3H]spiperone competition binding interaction experiment): 5.57 ± 0.25
fold decrease in cooperativity with DA vs WT (SNAP-D2SR F50^1.48A [1]; binding): 5 fold
Kb (SNAP-D2SR F50^1.48A [1]; binding interaction experiment): 3 µM
log α (SNAP-D2SR F50^1.48A [1]; cooperativity with DA, binding): 0.33 ± 0.03
α (SNAP-D2SR F50^1.48A [1]; cooperativity with DA, binding): 2.1
fold shift + 10 μM PAM (SNAP-D2SR F50^1.48A [1]; shift of DA IC50): 1.7 fold
ΔpIC50 + 10 μM PAM (SNAP-D2SR F50^1.48A [1]; shift of DA pIC50): 0.22 ± 0.12
fold shift + 10 μM PAM (SNAP-D2SR F408^8.54A; shift of DA IC50): 0.85 fold
ΔpIC50 + 10 μM PAM (SNAP-D2SR F408^8.54A; shift of DA pIC50): –0.07 ± 0.14
fold shift + 10 μM PAM (SNAP-D2SR F353^6.44A; shift of DA IC50): 1.3 fold
ΔpIC50 + 10 μM PAM (SNAP-D2SR F353^6.44A; shift of DA pIC50): 0.10 ± 0.12
D2 PAM2 log τ (SNAP-D2SR F50^1.48A [2]): –1.35 ± 0.22
D2 PAM2 pKB (SNAP-D2SR F50^1.48A [2]): 5.32 ± 0.28
D2 PAM2 τ (SNAP-D2SR F50^1.48A [2]): 0.04
fold decrease in cooperativity with DA (SNAP-D2SR F50^1.48A [2]; cAMP): 7 fold
Kb (SNAP-D2SR F50^1.48A [2]; [6]): 5 µM
D2 PAM2 log αβ (SNAP-D2SR F50^1.48A [2]; with DA): 0.39 ± 0.07
D2 PAM2 αβ (SNAP-D2SR F50^1.48A [2]; with DA): 2.5
fold shift + 10 μM PAM (SNAP-D2SR F404^8.50A; shift of DA IC50): 1.5 fold
ΔpIC50 + 10 μM PAM (SNAP-D2SR F404^8.50A; shift of DA pIC50): 0.19 ± 0.18
D2 PAM2 log τ (SNAP-D2SR C118^3.36A): –0.24 ± 0.05
D2 PAM2 pKB (SNAP-D2SR C118^3.36A): 4.82 ± 0.15
D2 PAM2 τ (SNAP-D2SR C118^3.36A): 0.57
Kb (SNAP-D2SR C118^3.36A; [6]): 15 µM
D2 PAM2 log αβ (SNAP-D2SR C118^3.36A; with DA): 1.30 ± 0.13
D2 PAM2 αβ (SNAP-D2SR C118^3.36A; with DA): 20
fold shift + 10 μM PAM (SNAP-D2SR N393^7.49A; shift of DA IC50): 0.8 fold
ΔpIC50 + 10 μM PAM (SNAP-D2SR N393^7.49A; shift of DA pIC50): –0.08 ± 0.10
fold shift + 10 μM PAM (SNAP-D2SR I128^3.46A; shift of DA IC50): 1.1 fold
ΔpIC50 + 10 μM PAM (SNAP-D2SR I128^3.46A; shift of DA pIC50): 0.06 ± 0.13
